Laboratory results taken from patent US10562902B2, “IRAK4 inhibitor and use thereof” (BEIJING HANMI PHARMACEUTICAL CO., LTD., priority 2015, dated 2020).

Key:
IRAK4 kinase = IRAK4 kinase (Homo sapiens (Human), UniProt Q9NWZ3); assay: IRAK4 kinase activity inhibition assay; assay type: biochemical; conditions: ADP-Glo kinase assay, 10 μM ATP, MBP substrate
Protocol: IRAK4 kinase (purchased from Life Technologies, Cat. No.: PR5612U) was diluted to 2 folds of the final concentration (the final concentration is […]) with reaction buffer (40 mM Tris-HC1, pH 7.5; 20 mM MgCl2; 0.1 mg/mL BSA; 1 mM DTT), and added to a 384-well plate at 5 μL/well. The test drugs were 10-fold serial diluted from 10 μM to set six concentration points and added to the test wells of the 384-well plate at 2.5 μL/well. After incubation for 10 min at 25° C., 10 μM of ATP and 0.1 μg/μL of an enzyme reaction substrate, myelin basic protein MBP (purchased from Signal Chem, Cat. No.: M42-51N) were added at 2.5 μL/well, and reacted at 25° C. for 60 minutes. After the reaction was completed, the kinase activity assay was performed using the ADP-Glo™ kinase assay kit (purchased from Promega, Cat. No.: V9102) according to the manufacture's instruction, i.e., 10 μL of ADP-Glo reaction reagent was first added and reacted at 25° C. for 40 minutes, 10 μL of the reaction mixture was taken and mixed with 10 μL of ADP-Glo detection reagent, and reacted at 25° C. for 30 minutes. The kinase activity was then detected, and the IC50 values of the test drugs were calculated.

TMD-8 cells = assay: TMD-8 cell growth inhibition assay; assay type: cell-based; conditions: Homo sapiens, TMD8, 96 hours, CCK-8
Protocol: The compound of Example 64 and the compound of Example 74 of the invention were tested in TMD-8 cell growth inhibition assay. TMD-8 cells (available from Korea Hanmi Research Center) were cultured in RMPI-1640 medium (purchased from Gibco, Cat. No.: 22440) containing 10% fetal bovine serum (purchased from Gibco, Cat. No.: 10099-141). The TMD-8 cells in logarithmic growth phase were seeded in a 96-well plate at 20,000 cells/well/100 μL, and RMPI-1640 medium (100 μL) was added into blank control wells. The test samples were diluted with RMPI-1640 medium to 2 folds of the final concentration (10-fold dilutions starting from 10 μM, setting 6 drug concentrations, and testing in replicate wells at each concentration). The diluted test samples were added to test wells seeded with cells at 100 μL/well, and RMPI-1640 medium (100 μL) was separately added to the positive control and the blank control wells. The 96-well plate was placed in the incubator and reacted at 37° C., 5% CO2 for 96 hours. After the reaction was completed, the 96-well plate was taken from the incubator and to each well was added CCK-8 (100 μL) (purchased from DOJINDO, Cat. No.: CK04-11). Then the 96-well plate was put back to the incubator and incubated for another 2 hours.

[1] = tested on: LPS-induced TNF-α secretion in THP-1 cells; assay: LPS-induced TNF-α secretion assay in THP-1 cells; assay type: cell-based; conditions: Homo sapiens, 24 hours, TNF-α ELISA
Protocol: The compound of Example 133 and the compound of Example 134 of the invention were tested in LPS-induced TNF-α secretion assay in THP-1 cells. Human THP-1 cells (purchased from ATCC, Cat. No.: TIB-202) were cultured in RPMI-1640 medium (purchased from Gibco, Cat. No.: 22440) containing 10% fetal bovine serum (purchased from Gibco, Cat. No.: 10099-141) and 0.05 mM of 2-mercaptoethanol (purchased from Gibco, Cat. No.: 21985). The THP-1 cells in logarithmic growth phase were seeded in a 96-well plate at 2×10^5 cells/well/100 μL. The test samples were diluted with RMPI-1640 medium to 4 folds of the final concentration (5-fold dilutions starting from 10 μM, setting 6 drug concentrations, and testing in replicate wells at each concentration). The diluted test samples were added to the test wells seeded with cells at 50 μL/well, and RMPI-1640 medium (50 μL) was separately added to positive control and negative control wells. The 96-well plate was placed in the incubator at 37° C., 5% CO2 and pre-incubated for 2 hours. […] After incubation in the incubator at 37° C., 5% CO2 for 24 hours, the cell culture supernatant was taken and determined for the content of TNF-α in the supernatant using a human TNF-α ELISA kit (purchased from DKW, Cat. No.: 12-1720-096).

Chain of IRAK4 kinase (Q9NWZ3 whole entry): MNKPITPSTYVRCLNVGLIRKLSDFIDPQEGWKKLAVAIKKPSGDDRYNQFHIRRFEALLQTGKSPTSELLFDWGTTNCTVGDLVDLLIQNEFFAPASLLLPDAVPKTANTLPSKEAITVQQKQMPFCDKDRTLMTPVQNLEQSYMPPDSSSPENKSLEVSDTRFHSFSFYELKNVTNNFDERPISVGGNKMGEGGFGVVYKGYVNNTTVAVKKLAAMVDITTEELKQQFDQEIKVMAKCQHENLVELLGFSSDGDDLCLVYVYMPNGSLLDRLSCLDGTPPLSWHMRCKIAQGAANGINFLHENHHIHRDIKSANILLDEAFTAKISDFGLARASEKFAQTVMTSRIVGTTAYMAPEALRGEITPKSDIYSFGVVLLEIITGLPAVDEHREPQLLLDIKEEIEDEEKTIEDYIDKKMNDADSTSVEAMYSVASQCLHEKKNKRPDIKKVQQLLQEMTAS

## Cc1cc(Nc2nc(O[C@H]3CCOC3)c3c(ccn3-c3cnn(C)c3)n2)sn1 [Example 64]
IRAK4 kinase
  IC50: ≤ 100 nM
TMD-8 cells
  IC50: 184 nM

## Cc1cc(Nc2nc(OC3CCOCC3)c3c(ccn3-c3cnn(C)c3)n2)sn1 [Example 74]
IRAK4 kinase
  IC50: ≤ 100 nM
TMD-8 cells
  IC50: 479 nM

## Cn1cc(-n2ccc3nc(Nc4cc(C(N)=O)cs4)nc(O[C@H]4CCOC4)c32)cn1 [Example 132]
IRAK4 kinase
  IC50: ≤ 100 nM

## CNC(=O)c1csc(Nc2nc(O[C@H]3CCOC3)c3c(ccn3-c3cnn(C)c3)n2)c1 [Example 133]
IRAK4 kinase
  IC50: ≤ 100 nM
[1]
  IC50: 161 nM

## CCNC(=O)c1csc(Nc2nc(O[C@H]3CCOC3)c3c(ccn3-c3cnn(C)c3)n2)c1 [Example 134]
IRAK4 kinase
  IC50: ≤ 100 nM
[1]
  IC50: 311 nM

## CCCNC(=O)c1csc(Nc2nc(O[C@H]3CCOC3)c3c(ccn3-c3cnn(C)c3)n2)c1 [Example 135]
IRAK4 kinase
  IC50: 100 to 1000 nM

## CC(C)NC(=O)c1csc(Nc2nc(O[C@H]3CCOC3)c3c(ccn3-c3cnn(C)c3)n2)c1 [Example 136]
IRAK4 kinase
  IC50: ≤ 100 nM

## Cn1cc(-n2ccc3nc(Nc4cc(C(=O)NCCF)cs4)nc(O[C@H]4CCOC4)c32)cn1 [Example 137]
IRAK4 kinase
  IC50: ≤ 100 nM

## Cn1cc(-n2ccc3nc(Nc4cc(C(=O)NCC(F)(F)F)cs4)nc(O[C@H]4CCOC4)c32)cn1 [Example 138]
IRAK4 kinase
  IC50: ≤ 100 nM

## COCCNC(=O)c1csc(Nc2nc(O[C@H]3CCOC3)c3c(ccn3-c3cnn(C)c3)n2)c1 [Example 139]
IRAK4 kinase
  IC50: ≤ 100 nM

## Cn1cc(-n2ccc3nc(Nc4cc(C(=O)NCC5CCOCC5)cs4)nc(O[C@H]4CCOC4)c32)cn1 [Example 140]
IRAK4 kinase
  IC50: ≤ 100 nM

## CN1CCC(CNC(=O)c2csc(Nc3nc(O[C@H]4CCOC4)c4c(ccn4-c4cnn(C)c4)n3)c2)CC1 [Example 141]
IRAK4 kinase
  IC50: ≤ 100 nM

## Cn1cc(-n2ccc3nc(Nc4cc(C(=O)NCc5cccs5)cs4)nc(O[C@H]4CCOC4)c32)cn1 [Example 142]
IRAK4 kinase
  IC50: 100 to 1000 nM

## Cn1cc(-n2ccc3nc(Nc4cc(C(=O)NC5CC5)cs4)nc(O[C@H]4CCOC4)c32)cn1 [Example 143]
IRAK4 kinase
  IC50: ≤ 100 nM

## Cn1cc(-n2ccc3nc(Nc4cc(C(=O)NC5CCCCC5)cs4)nc(O[C@H]4CCOC4)c32)cn1 [Example 144]
IRAK4 kinase
  IC50: 100 to 1000 nM

## CN1CCC(NC(=O)c2csc(Nc3nc(O[C@H]4CCOC4)c4c(ccn4-c4cnn(C)c4)n3)c2)CC1 [Example 145]
IRAK4 kinase
  IC50: ≤ 100 nM

## Cn1cc(-n2ccc3nc(Nc4cc(C(=O)N[C@@H]5CCOC5)cs4)nc(O[C@H]4CCOC4)c32)cn1 [Example 146]
IRAK4 kinase
  IC50: ≤ 100 nM

## Cn1cc(-n2ccc3nc(Nc4cc(C(=O)N[C@H]5CCOC5)cs4)nc(O[C@H]4CCOC4)c32)cn1 [Example 147]
IRAK4 kinase
  IC50: ≤ 100 nM

## Cn1cc(-n2ccc3nc(Nc4cc(C(=O)NC5CCOCC5)cs4)nc(O[C@H]4CCOC4)c32)cn1 [Example 148]
IRAK4 kinase
  IC50: ≤ 100 nM

## CN(C)C(=O)c1csc(Nc2nc(O[C@H]3CCOC3)c3c(ccn3-c3cnn(C)c3)n2)c1 [Example 149]
IRAK4 kinase
  IC50: ≤ 100 nM

## Cn1cc(-n2ccc3nc(Nc4cc(C(=O)N5CCCCC5)cs4)nc(O[C@H]4CCOC4)c32)cn1 [Example 150]
IRAK4 kinase
  IC50: ≤ 100 nM

## CN1CCN(C(=O)c2csc(Nc3nc(O[C@H]4CCOC4)c4c(ccn4-c4cnn(C)c4)n3)c2)CC1 [Example 151]
IRAK4 kinase
  IC50: ≤ 100 nM

## Cn1cc(-n2ccc3nc(Nc4cc(C(=O)N5CCOCC5)cs4)nc(O[C@H]4CCOC4)c32)cn1 [Example 152]
IRAK4 kinase
  IC50: ≤ 100 nM

## Cn1cc(-n2ccc3nc(Nc4cc(C(=O)N5CCSCC5)cs4)nc(O[C@H]4CCOC4)c32)cn1 [Example 153]
IRAK4 kinase
  IC50: 100 to 1000 nM

## Cn1cc(-n2ccc3nc(Nc4cc(C(=O)N5CCS(=O)(=O)CC5)cs4)nc(O[C@H]4CCOC4)c32)cn1 [Example 154]
IRAK4 kinase
  IC50: ≤ 100 nM

## CNC(=O)c1cc(Nc2nc(OCCOC)c3c(ccn3-c3cnn(C)c3)n2)cs1 [Example 155]
IRAK4 kinase
  IC50: ≤ 100 nM

## CCNC(=O)c1cc(Nc2nc(OCCOC)c3c(ccn3-c3cnn(C)c3)n2)cs1 [Example 156]
IRAK4 kinase
  IC50: ≤ 100 nM

## CNC(=O)c1cc(Nc2nc(O[C@@H]3CCOC3)c3c(ccn3-c3cnn(C)c3)n2)cs1 [Example 157]
IRAK4 kinase
  IC50: ≤ 100 nM

## CCNC(=O)c1cc(Nc2nc(O[C@@H]3CCOC3)c3c(ccn3-c3cnn(C)c3)n2)cs1 [Example 158]
IRAK4 kinase
  IC50: ≤ 100 nM

## CNC(=O)c1cc(Nc2nc(O[C@H]3CCOC3)c3c(ccn3-c3cnn(C)c3)n2)cs1 [Example 159]
IRAK4 kinase
  IC50: ≤ 100 nM

## CCNC(=O)c1cc(Nc2nc(O[C@H]3CCOC3)c3c(ccn3-c3cnn(C)c3)n2)cs1 [Example 160]
IRAK4 kinase
  IC50: ≤ 100 nM

## Cn1cc(-n2ccc3nc(Nc4csc(C(=O)NCCF)c4)nc(O[C@H]4CCOC4)c32)cn1 [Example 161]
IRAK4 kinase
  IC50: ≤ 100 nM

## CN1CCC(NC(=O)c2cc(Nc3nc(O[C@H]4CCOC4)c4c(ccn4-c4cnn(C)c4)n3)cs2)CC1 [Example 162]
IRAK4 kinase
  IC50: ≤ 100 nM

## CN(C)C(=O)c1cc(Nc2nc(O[C@H]3CCOC3)c3c(ccn3-c3cnn(C)c3)n2)cs1 [Example 163]
IRAK4 kinase
  IC50: ≤ 100 nM

## CNC(=O)c1ccc(Nc2nc(O[C@H]3CCOC3)c3c(ccn3-c3cnn(C)c3)n2)s1 [Example 164]
IRAK4 kinase
  IC50: 100 to 1000 nM

## CNC(=O)c1csc(Nc2nc(O[C@H]3CCOC3)c3c(ccn3-c3cnn(C)c3)n2)n1 [Example 165]
IRAK4 kinase
  IC50: 1000 to 10000 nM

## CNC(=O)c1cc(Nc2nc(O[C@H]3CCOC3)c3c(ccn3-c3cnn(C)c3)n2)sn1 [Example 166]
IRAK4 kinase
  IC50: ≤ 100 nM

## CNC(=O)c1csc(Nc2nc(OC3CCOCC3)c3c(ccn3-c3cnn(C)c3)n2)c1 [Example 167]
IRAK4 kinase
  IC50: ≤ 100 nM

## CCNC(=O)c1csc(Nc2nc(OC3CCOCC3)c3c(ccn3-c3cnn(C)c3)n2)c1 [Example 168]
IRAK4 kinase
  IC50: ≤ 100 nM

## Cn1cc(-n2ccc3nc(Nc4cc(C(=O)NCCF)cs4)nc(OC4CCOCC4)c32)cn1 [Example 169]
IRAK4 kinase
  IC50: ≤ 100 nM

## Cn1cc(-n2ccc3nc(Nc4cc(C(=O)NCC(F)F)cs4)nc(OC4CCOCC4)c32)cn1 [Example 170]
IRAK4 kinase
  IC50: ≤ 100 nM

## CN(C)C(=O)c1csc(Nc2nc(OC3CCOCC3)c3c(ccn3-c3cnn(C)c3)n2)c1 [Example 171]
IRAK4 kinase
  IC50: ≤ 100 nM

## CNC(=O)c1cc(Nc2nc(OC3CCOCC3)c3c(ccn3-c3cnn(C)c3)n2)cs1 [Example 172]
IRAK4 kinase
  IC50: ≤ 100 nM

## CCNC(=O)c1cc(Nc2nc(OC3CCOCC3)c3c(ccn3-c3cnn(C)c3)n2)cs1 [Example 173]
IRAK4 kinase
  IC50: ≤ 100 nM

## CN(C)C(=O)c1cc(Nc2nc(OC3CCOCC3)c3c(ccn3-c3cnn(C)c3)n2)cs1 [Example 174]
IRAK4 kinase
  IC50: 100 to 1000 nM

## Cn1cc(-n2ccc3nc(Nc4cc5n(c4)CCNC5=O)nc(OC4CCOCC4)c32)cn1 [Example 175]
IRAK4 kinase
  IC50: 100 to 1000 nM
